# Article PMC12002301, “Discovery and functional characterization of a bombesin-type neuropeptide signaling system in an invertebrate” (Proceedings of the National Academy of Sciences of the …, 2025)
# What was measured:
# [1] = tested on: ArBNR2(G272); experiment: Luminescence (GFP-aequorin Ca2+) assay, CHO-K1 cells coexpressing ArBNR2(G272) and Gqs5; type: cell-based, Asterias rubens; conditions: words, up to 10^-5 M
# Source text: Having identified ArBN and ArBN5-14 as peptides that are naturally derived from ArBNP in A. rubens, we then sought to identify receptors that these peptides may act as ligands for. BLAST analysis of transcriptome/genome data identified eleven candidate BN-type receptors, which we refer to as ArBNR1-11. Homologs of this family of proteins were also identified in other echinoderms. […] Accordingly, a modified form of ArBNR2 in which the glutamate residue at position 272 is substituted with glycine, ArBNR2(G272), also has seven predicted transmembrane domains (SI Appendix, SI Methods). […]
# domains and other structural features (9). The topology of […] of the potential A. rubens BN-type receptors as predicted by Protter V1.0 comprised seven transmembrane domains, as expected for a GPCR. However, the topology of the proteins encoded by contig 1110162 and contig 1110464 comprised only six and four transmembrane domains, respectively. Analysis of the transcript […]
# To determine the complete open reading frame of ArBNR2, contig 1110162 was used as a query for blastx analysis of A. rubens genome sequence data on NCBI and accession no. […] The protein (XP_033631283.1 referred to henceforth as ArBNR2) was analysed using […]
# Having discovered that MgBNR2 has the expected topology for a GPCR when analysed using both Protter and DeepTMHMM, we then compared its sequence to ArBNR2. […]
# [2] = tested on: CHO-K1 cells transfected with empty pcDNA3.1(+) vector; experiment: Luminescence control assay, CHO-K1 cells cotransfected with empty pcDNA3.1(+) vector and Gqs5; type: cell-based, Chinese hamster; conditions: empty pcDNA3.1(+) vector and Gqs5, words
Substance,peptide-induced luminescence [1],peptide-induced luminescence [2]
"NYNRVFGPTY-NH2 [ArBN5-14, C-terminally amidated 10-residue peptide corresponding to the C-terminal region of ArBN]",did not trigger luminescence,did not trigger luminescence
"EPMPSSLALYIANLSP-NH2 [ArBNP65-81, C-terminally amidated 16-residue peptide predicted to be derived from residues 65 to 81 of ArBNP]",did not trigger luminescence,did not trigger luminescence
